Results from PMC12730333 (Biology, 2025).
Marks after values point to notes of the source that are not given here.

Legend:
L. amazonensis = system: L. amazonensis; set-up: method as in Cabral et al. 136; conditions: MB treatment with PDT; ref Cabral et al. 136; cited from earlier work
[1] = system: Leishmania amazonensis promastigote forms (PH8 strain)
Protocol: (§3) Promastigotes were kept at 26 °C, whereas amastigotes were kept at 32 °C. After 24 h, parasite viability was assessed using the AB colorimetric method, and the data were analyzed using a spectrophotometer as previously described [74]. […] Wells with medium and without parasites were used as blanks, and wells with medium and untreated parasites were used as negative controls. MT was employed as the reference drug.

[2] = system: ex vivo amastigote forms of Leishmania amazonensis LTB0016 strain; test: Cell death by flow cytometry, 7-AAD, ex vivo amastigotes; conditions: IC50, 24 h, mean ± SD
[3] = system: promastigote forms of Leishmania amazonensis PH8 strain; test: Leishmanicidal activity assay on promastigotes (Alamar Blue, 24 h); type: cell-based; conditions: Leishmania amazonensis, 10^6 parasites/mL
Protocol: Promastigote forms of Leishmania amazonensis (IFLA/BR/1967/PH8) were obtained from the Instituto Oswaldo Cruz Leishmania collection (CLIOC/Fiocruz). These cultures were maintained in Schneider’s Insect Medium, supplemented with 20% FBS and 1 μL/mL of Pen/Str at 26 °C. In vitro passages were conducted weekly, with promastigotes harvested during the late logarithmic phase for experiments on the 5th day of growth (Figure S1A).
MT was employed as the reference drug.

[4] = system: ex vivo amastigote forms of L. amazonensis LTB0016 strain; test: ROS production by flow cytometry, H2DCFDA, ex vivo amastigotes; type: cell-based, Leishmania amazonensis; conditions: exposed to IC50 (AA 10 µM), 24 h
[5] = Cytotoxicity assay (Alamar Blue, 24 h) on L929 fibroblasts; type: cell-based, murine; conditions: mouse, L929 fibroblasts
Protocol: (§1) HepG2 cells (human hepatocellular carcinoma), VERO cells (African green monkey kidney), and J774.G8 macrophages (murine reticulosarcoma) were maintained in DMEM medium, supplemented with 10% FBS, 1% Pen/Str at 37 °C and 5% CO2 [70, 71]. For the cultivation of L929 fibroblasts (murine fibrosarcoma), RPMI 1640 medium without phenol red, supplemented with 2 mM L-glutamine, 10% FBS, and 1% Pen/Str, was used and maintained under the same conditions of temperature and CO2 as above.
(§2) J774.G8, VERO (10^5 cells/well), HepG2, L929 (0.5 × 10^5 cells/well) cells, and MPMs (3 × 10^5 cells/well) were centrifuged, resuspended in medium, plated in 96-well microplates, and incubated for 24 h under cultivation conditions. Subsequently, they were exposed to different concentrations of the compounds, serially diluted in medium to a final volume of 100 µL/well, and incubated for 24 h at 37 °C and 5% CO2. Cell viability was then assessed using the AB, and data were acquired by spectrophotometry. […] Untreated cells were used as negative controls, and cells exposed to the reference compound (MT) were used as positive controls. The Selectivity Index (SI) was calculated using the ratio SI = CC50 (mammalian cells)/IC50 (promastigote or amastigote forms of L. amazonensis).

[6] = Cytotoxicity assay (Alamar Blue, 24 h) on murine peritoneal macrophages; type: cell-based, Swiss Webster mice; conditions: male, Swiss Webster, mouse, murine peritoneal macrophages (MPMs, primary cells), 3 × 10^5 cells/well
Protocol: Murine peritoneal macrophages—MPMs (primary cells)—were isolated from male Swiss Webster mice stimulated with 1 mL of 3% Brewer’s thioglycollate medium, administered intraperitoneally. After 96 h, the animals were euthanized, and the MPMs were collected by peritoneal lavage with approximately 10 mL of RPMI 1640 medium. The cell suspension was centrifuged at 382× g for 10 min, and the pellet was resuspended in medium supplemented with 5% FBS, 1% Pen/Str, and 2 mM L-glutamine. All cell cultures were maintained at 37 °C and 5% CO2 [73]. For the experiments, all cell types were cultured until confluency.
as §2

[7] = Cytotoxicity assay (Alamar Blue, 24 h) on VERO cells; type: cell-based, African green monkey; conditions: African green monkey, VERO cells
Protocol: as §1, §2

HepG2 cells = test: Cytotoxicity assay (Alamar Blue, 24 h) on HepG2 cells; type: cell-based, human; conditions: 0.5 × 10^5 cells/well
Protocol: as §1, §2

[8] = as above; type: cell-based, human; conditions: human, HepG2 cells
Protocol: as §1, §2

[9] = system: ex vivo amastigote forms of L. amazonensis LTB0016 strain; test: Mitochondrial membrane potential (ΔΨm) by flow cytometry, TMRE, ex vivo amastigotes
[10] = system: promastigote forms of Leishmania amazonensis PH8 strain; test: Cell death by flow cytometry, Annexin V/PI, promastigotes; conditions: 200 μM, 24 h, preliminary assay (Figure S5); control 99.81%
promastigotes = conditions: MB without light treatment; cited from earlier work
[11] = system: ex vivo amastigote forms of L. amazonensis LTB0016 strain; test: Leishmanicidal activity assay on ex vivo amastigotes (Alamar Blue, 24 h); conditions: Leishmania amazonensis, 24 h, read-out: IC50 Ama.
Source text: Ex vivo amastigote forms of L. amazonensis (MHOM/BR/77/LTB0016) were harvested and purified from lesions of male BALB/c mice. For this, a suspension containing 10^6 amastigotes was inoculated subcutaneously into the intraplantar region of the hind paw. After 30 days, the animals were euthanized, and their paws were excised and rinsed in 70% ethanol. The epidermis and necrotic tissues were mechanically dissociated. Subsequently, the paws were placed in Petri dishes containing RPMI 1640 medium supplemented with 5% FBS and 2% Pen/Str. […] The supernatant was transferred to another tube, homogenized with a syringe, and centrifuged at 764× g for another 15 min. The supernatant was discarded, and the pellet was resuspended in RPMI 1640 medium [69].
as §3

[12] = system: promastigote forms of Leishmania amazonensis PH8 strain; test: ROS production by flow cytometry, H2DCFDA, promastigotes; type: cell-based; conditions: exposed to IC50 (AA 10 µM), 24 h
[13] = system: promastigote forms of Leishmania amazonensis PH8 strain; test: Mitochondrial membrane potential (ΔΨm) by flow cytometry, TMRE, promastigotes; conditions: exposed to IC50, 24 h
[14] = system: fibroblasts and macrophages; set-up: method as in PMID 38917757; conditions: MB without light treatment; cited from earlier work
[15] = Cytotoxicity assay (Alamar Blue, 24 h) on J774.G8 macrophages; type: cell-based, murine; conditions: mouse, J774.G8 macrophages
Protocol: as §1, §2

[16] = system: promastigote forms of Leishmania amazonensis PH8 strain; test: Preliminary MB concentration assessment on promastigotes, Neubauer chamber counting, 72 h; type: cell-based; conditions: 3.13–200 μM tested
Protocol: Deyvison Rhuan Vasco-dos-Santos, Juliana Almeida-Silva, Ludmila Ferreira de Almeida Fiuza,
Natalia Vacani-Martins, Zênis Novais da Rocha, Maria de Nazaré Correia Soeiro, Andrea Henriques-Pons,
Eduardo Caio Torres-Santos and Marcos André Vannier-Santos
Evaluation of parasite proliferation after 24 h (B2), 48 h (B3), and 72 h (B4) are shown. Viability was
assessed by counting in a Neubauer chamber. Data represents mean ± SD. (*) p < 0.05 when
compared to negative control by ANOVA and Tukey’s post-test. […]

[17] = lower concentrations (37–100 μM)
[18] = exposed to IC50, 24 h, (MT − MC)/MC

## CN(C)c1ccc2nc3ccc(=[N+](C)C)cc-3sc2c1 [MB, methylene blue, reference compound]
L. amazonensis
  increase in ROS levels: 2 fold
  reduction in ΔΨm: 60%
[1]; exposed to IC50
  proliferation of promastigotes over 24 to 168 h: total inhibition from 96 h
[1]; exposed to IC50, 24–168 h
  time from which proliferation was significantly (p < 0.05) reduced compared to MT: ≥ 24 h
[2]
  cell death (7-AAD) in ex vivo amastigotes: highest mortality rate
[3]
  IC50: 61.4 ± 4.41 µM
[4]
  H2DCFDA MFI, Ex Vivo Amastigotes High Population: 140,636.20
  H2DCFDA MFI, Ex Vivo Amastigotes Low Population: 3151.50
[4]; MT/MC
  VIROS, Ex Vivo Amastigotes High Population: 0.90 ± 0.29
  VIROS, Ex Vivo Amastigotes Low Population: 1.28 ± 0.46
[5]; 0.5 × 10^5 cells/well
  CC50 at 24 h: 322 ± 3.74 µM
[5]; lower concentrations (37–100 μM), read-out: viability of L929 cells
  viability at 24 h: > 50%
[6]
  CC50 at 24 h: 36 ± 3.69 µM
[7]; 10^5 cells/well
  CC50 at 24 h: 141 ± 5.58 µM
[7]; [17]
  viability at 24 h: > 50%
HepG2 cells
  CC50: 96 ± 3.28 µM
[8]; 0.5 × 10^5 cells/well
  CC50 at 24 h: > 70 µM
[8]; [17]
  viability at 24 h: > 50%
[9]; IC50, 24 h
  loss of potential (ΔΨm) in HP ex vivo amastigotes / mitochondrial depolarization: up to 61%
[9]; ex vivo amastigotes, LP plus HP, IC50, 24 h
  decrease of ΔΨm considering both subpopulations: 98%
[9]; exposed to IC50, 24 h
  TMRE MFI, ex vivo Amastigotes High Population: 317,106.50
  TMRE MFI, ex vivo Amastigotes Low Population: 3237.43
[9]; [18]
  VIΔΨm, ex vivo Amastigotes High Population: −0.61 ± 0.18
  VIΔΨm, ex vivo Amastigotes Low Population: −0.37 ± 0.32
[10]
  viability of promastigotes (AV/PI): 12.89%
promastigotes
  IC50: 100 µM
[11]
  IC50: 15.7 ± 2.23 µM
[12]
  H2DCFDA MFI, Promastigotes High Population: 1,658,186.80 *
  H2DCFDA MFI, Promastigotes Low Population: 26,534.03
[13]
  TMRE MFI, Promastigotes High Population: 56,878.47
  TMRE MFI, Promastigotes Low Population: 2737.60 *
[13]; (MT − MC)/MC
  VIΔΨm, Promastigotes High Population: 0.02 ± 0.03
[13]; (MT − MC)/MC, negative = depolarization
  VIΔΨm, Promastigotes Low Population: −0.41 ± 0.05
[14]
  cytotoxicity in fibroblasts and macrophages: no cytotoxicity observed
[15]; 10^5 cells/well, read-out: CC50 J744.G8
  CC50 at 24 h: 206 ± 9.19 µM
[15]; lower concentrations (37–100 μM), read-out: viability of J774.G8 cells
  viability at 24 h: > 50%
[16]; 48 h
  concentration from which significant reduction (p < 0.05) at 48 h: ≥ 50 µM
[16]; 72 h
  concentration from which total viability loss at 72 h: ≥ 12.50 µM
